From publication PMC7824769, “Identification of Small Molecules Blocking the Pseudomonas aeruginosa Type III Secretion System Protein PcrV” (Biomolecules, 2021)
Where “and” joins values, the source holds several entries; their conditions need not be identical. Identical values can stand only once.

Experiments:
PcrV = PcrV (Pseudomonas aeruginosa, UniProt G3XD49); assay: SPR dose-response binding to immobilized PcrV (equilibrium analysis); settings: for Binding to PcrV in SPR (in words): dose-response SPR
Protocol: The SPR screening was performed using the ProteOn^TM XPR36 Protein Interaction Array System (Bio-Rad Laboratories Inc., Hercules, CA, USA) with ProteOn GLH sensor chip (Bio-Rad Laboratories Inc., Hercules, CA, USA), and the results were analyzed with the ProteOn Manager software^TM (Bio-Rad Laboratories Inc., Hercules, CA, USA), Excel 2016 (Microsoft Office), and GraphPad Prism 7.04. All SPR experiments were performed at 25 °C. The multichannel module of the ProteOn system was in the vertical position during protein immobilization. The proteins were attached to the surface of a GLH sensor chip via amine coupling chemistry. A buffer scouting was performed to elucidate the optimal binding conditions of PcrV to the GLH sensor chip. First, channels 1–4 on the chip surface were activated using a 1:1 mixture of 40 mM 1-ethyl-3-(3-dimethylaminopropyl)carbodiimide hydrochloride (EDAC) (Bio-Rad Laboratories Inc., Hercules, CA, USA) and 10 mM N-hydroxysulfosuccinimide (sulfo-NHS, Bio-Rad Laboratories Inc., Hercules, CA, USA) for 300 s at 30 µL/min. Next, the proteins PcrV (33,398.6 Da, 6.37 mg/mL) was diluted in 10 mM NaOAc (pH 4, 4.5, and 5) to 0.05 mg/mL. PcrV was immobilized in channel 1–3 for 540 s at 30 µL/min. Channel 4 was flushed with 10 mM NaOAc (pH 5) for 540 s at 30 µL/min. As deactivating agent, a 1:1 mixture of 1 M ethanolamine and milli-Q filtered water was used. The deactivating solution was injected over all four channels for 300 s at 30 µL/min. Phosphate buffered saline with Tween (PBST; 10 mM phosphate buffer pH 7.4, 140 mM NaCl, 2.7 mM KCl, and 0.05% Tween 20) was used as the running buffer. The final amount of immobilized protein was measured in resonance units (RU) relative to the signal of the baseline prior activation. […] Immobilization of PcrV diluted in sodium acetate of pH 4.5 in one channel and of pH 5 in one channel were used in the beginning of the screening procedure (for plate 1–26). Since no difference was found between the two pH values, the PcrV protein was diluted in sodium acetate at pH 5 only (in two channels) from plate 27 and the rest of the screen. The immobilization procedure for the screening was performed as described above with the addition that the control protein carbonic anhydrase isoenzyme II from bovine erythrocytes (CAII, Sigma-Aldrich, article number 2522) was immobilized in one channel that was activated and deactivated as described above. CAII (1 mg/mL in PBS) was deactivated when diluted in 10 mM sodium acetate (pH 4) to 0.05 mg/mL. Immobilization level of the deactivated CAII was 18,000 RU. Deactivated CAII was used as a control protein according to the recommendations by the ProteOn manufacturer (Bio-Rad Laboratories Inc., Hercules, CA, USA). As running buffer, we employed PBS (pH 7.4, 0.05% Tween 20).
First, the PcrV protein was immobilized in two channels as described above while keeping a blank channel which was activated and deactivated as described above. The multichannel module of the ProteOn system was in horizontal position during the small molecule interaction studies. They were serially diluted to (400,) 200, 100, 50, 25, 12.5, 6.25, and (3.125); or 100, 50, 25, and 12.5 µM; or 100, 66.7, 44.4, 29.6, 19.7, and 13.2 µM in PBST (0.05% Tween 20) with a total concentration of 5% DMSO in 96-well plates. The running buffer was PBST (0.05% Tween 20) containing 5% DMSO. The analytes were injected at a flowrate of 100 µL/min, contact time was 60 s, and dissociation time was 60–120 s. Solvent correction was performed continuously during the experiments to account for bulk response of DMSO. The data was then baseline-aligned, processed by channel referencing with the blank channel, and solvent-corrected. The equilibrium dissociation constant (KD) values were determined from equilibrium analysis in the ProteOn Manager software^TM. Solubility problems frequently hampered KD determination since the small molecules could not always be dissolved in concentrations high enough to reach a plateau. […]

[1] = system: J774 cells infected with P. aeruginosa strain PAK; assay: cells; type: cell-based, Pseudomonas aeruginosa; settings: for viability at 25 µM / viability at 50 µM / viability at 100 µM / viability at 200 µM: Pseudomonas aeruginosa, uninfected control = 100%, infected control = 0%; for viability at 25 µM: J774, compound 25 µM, read-out: Viability Assay (% of Uninfected Control) 25 µM; for viability at 50 µM: J774, compound 50 µM, read-out: Viability Assay (% of Uninfected Control) 50 µM; for viability at 100 µM: J774, compound 100 µM, read-out: Viability Assay (% of Uninfected Control) 100 µM; for viability at 200 µM: J774, compound 200 µM; for Anti-virulence efficacy in the infection assay (in words): 25-200 µM
Protocol: The cell viability assay was performed essentially as described before. J774 cells were seeded in 96-well micro-titer plates (Nunc), 100 µL/well, to a final number of 50,000 cells/well in Dulbecco’s modified Eagle’s medium (DMEM) with glutamax (Merck) supplemented with 10% fetal calf serum (FCS) and 3 µg/mL gentamicin and incubated for 16-18 h. Overnight cultures of the P. aeruginosa strains PAK and PAKpcrV [10] were grown in Luria Broth (LB) on a rotary shaker at 220 rpm at 37 °C. Prior to infection, the bacteria were diluted 1:10 in DMEM + glutamax and incubated for 1 h at 37 °C (shaking). The J774 cells were washed once with PBS, then 30 µL of DMEM with glutamax and 10% FCS supplemented with the potential binders at concentrations of 50, 100, 200, and 400 µM were added to the wells in triplicates. The infection was initiated by adding 30 µL of the diluted bacterial solutions (where the OD600 had been diluted to 0.0008) to each well to initiate infection. This infection results in a final bacterial concentration of OD600 = 0.0004 and a multiplicities of infection (MOI) of approximately 8, with final concentrations of the compounds at 25, 50, 100, and 200 µM in 60 µL of DMEM + glutamax and 5% FCS. In the primary screening, the compounds were run at one concentration (100 µM) in duplicates. As an infection control, the wild-type strain PAK with 1% DMSO was added, and as a positive control, PAKpcrV with 1% DMSO was added into four wells each. After 3 h and 30 min, 10 µL of UptiBlue Viable Cell Counting Kit (Interchime, France) was added to all wells. The infection was followed under the light microscope and the fluorescence (excitation 535 nm and emission 595 nm) was measured at 4, 5, and 6 h in a microplate reader (Synergy™ H4, Biotek). The results were calculated as percentage of living cells compared to uninfected control, where the uninfected control was set to 100% living cells and the infected control was set to 0% living cells. As a control, compounds were added to uninfected cells in a parallel experiment and viability was calculated as above to screen for cell toxicity. A compound was considered toxic if the viability was <80% of the uninfected control after 6 h of incubation and if a visual change of cell morphology was observed by microscopy. Z’ was calculated for each plate to ensure good quality throughout the screening. Only results from plates with a Z’ > 0.4 were counted. Standard deviation was calculated with Gaussian approximation when appropriate and shown as error bars in Figure 3C and Figure 4A.
The T3SS is important for P. aeruginosa infection of eukaryotic cells, and a T3SS activator mutant or a mutant lacking the T3SS tip protein PcrV are not able to infect eukaryotic cells. The macrophage cell line, J774, was infected with the wild-type P. aeruginosa strain PAK, and the potential PcrV binders were added to the wells at a final concentration of 100 µM to screen for inhibition of infection. The T3SS-mediated cytotoxic effect on the eukaryotic cells was measured by using a viability staining method (Uptiblue, Interchim), and the results were measured after 4, 5, and 6 h of infection. The pcrV-mutant (PAKpcrV), which is not able to infect macrophages due to deletion of the PcrV protein, was used as a control.

[2] = SPR KD, equilibrium analysis, mean ± SD of three or more independent experiments, individual values where n < 3, 25 °C, PBST 5% DMSO
[3] = KD ± standard error of KD (Table S1), single experiment, standard error from ProteOn Manager software

Sequence of PcrV (G3XD49 entry or part of it): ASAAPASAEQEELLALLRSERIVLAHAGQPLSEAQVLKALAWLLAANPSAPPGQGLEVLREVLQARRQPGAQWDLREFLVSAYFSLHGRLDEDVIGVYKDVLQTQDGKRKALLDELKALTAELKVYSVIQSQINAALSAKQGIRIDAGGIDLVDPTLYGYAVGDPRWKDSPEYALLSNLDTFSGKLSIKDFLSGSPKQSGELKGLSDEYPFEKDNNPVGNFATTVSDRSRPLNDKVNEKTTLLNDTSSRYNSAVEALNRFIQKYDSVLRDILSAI

| SMILES | Kd (PcrV; [2]) | Binding to PcrV in SPR (in words) (PcrV) | Kd (PcrV; [3]) [µM] | Rmax (Table S1) (PcrV; single experiment) | viability at 25 µM [1] [%] | viability at 50 µM [1] [%] | viability at 100 µM [1] [%] | viability at 200 µM [1] [%] | Anti-virulence efficacy in the infection assay (in words) [1] |
| --- | --- | --- | --- | --- | --- | --- | --- | --- | --- |
| Cc1c(Br)ccc(OCCCC(=O)Nc2cc(F)c(F)cc2C(=O)O)c1C [Compound 24] | > 600 µM | failed to bind PcrV |  |  |  |  |  |  |  |
| O=C(O)CCCOc1ccc2c(c1)OCO2 [Compound 8] | > 600 µM | impaired binding |  |  |  |  |  |  |  |
| Cc1c(Br)ccc(OCCCC(=O)N2CCCCC2C(=O)O)c1C (centres unmarked) [Compound 22] | 62 µM and 77 µM |  | 61.5 ± 14.9 | 108.6 | 18 | 27 | 29 | 28 |  |
| O=C(O)CCCOc1cccc(C(=O)O)c1 [Compound 10] | > 600 µM | no binding to PcrV |  |  |  |  |  |  |  |
| O=C(O)CCCOc1ccc(Cl)cc1 [Compound 3] | > 600 µM | no binding at the examined concentrations |  |  |  |  |  |  |  |
| Cc1c(Br)ccc(OCCCC(=O)NS(C)(=O)=O)c1C [Compound 26] | 93 ± 31 µM |  | 135 ± 30 |  | 10 | 11 | 17 | 13 |  |
| Cc1cc(OCCCC(=O)O)cc(C)c1Br [Compound 14] | < 150 µM and 148 µM |  | 80.7 ± 30.3 | 78.9 | 13 | 23 | 26 | 32 | as efficacious as or better than H1 |
| Cc1c(Br)ccc(OCCCC(=O)NS(=O)(=O)C(F)(F)F)c1C [Compound 25] | 102 µM and 164 µM |  |  |  | 9 | 11 | 22 | 34 | as efficacious as or better than H1 |
| O=C(O)CCCOc1ccc(Cc2ccccc2)cc1 [Compound 16] | > 600 µM |  |  |  |  |  |  |  |  |
| O=C(O)CCCOc1ccc(Br)cc1F [Compound 5] | > 600 µM | no binding at the examined concentrations |  |  |  |  |  |  |  |
| Cc1cc(C#N)cc(C)c1OCCCC(=O)O [Compound 12] | > 600 µM | reduced binding |  |  |  |  |  |  |  |
| O=C(O)CCCOc1cccc(C(F)(F)F)c1 [Compound 9] | > 600 µM | no binding to PcrV |  |  |  |  |  |  |  |
| COC(=O)CCCOc1ccc(Br)c(C)c1C [Compound 29] | 110 ± 83 µM |  | 206 ± 77 | 60 | 8 | 12 | 23 | 14 |  |
| O=C(O)CCCOc1ccc(I)cc1 [Compound 4] | > 600 µM | no binding at the examined concentrations |  |  |  |  |  |  |  |
| COc1cc(OC)cc(OCCCC(=O)O)c1 [Compound 7] | > 600 µM | impaired binding |  |  |  |  |  |  |  |
| O=C(O)CCCOc1cc(Cl)cc(Cl)c1 [Compound 2] | < 127 µM and 102 µM and 127 µM |  |  |  |  |  |  |  |  |
| O=C(O)CCCOc1ccc(C2CCCCC2)cc1 [Compound 15] | 153 µM |  |  |  | 12 | 17 | 24 | 17 |  |
| Cc1cc(Br)cc(C)c1OCCCC(=O)O [Compound 13] | 431 ± 110 µM | reduced binding |  |  | 19 | 18 | 21 | 20 |  |
| O=C(O)CCCOc1ccc2ccc(=O)oc2c1 [Compound 11] | > 600 µM | no binding to PcrV |  |  |  |  |  |  |  |
| Cc1c(Br)ccc(OCCCCC(=O)O)c1C [Compound 31] | 120 µM and 138 µM |  |  |  | 11 | 17 | 18 | 17 | no or modest anti-virulence activity without clear dose-response |
| Cc1c(Br)ccc(OCCCC(=O)N2CCCC(C(=O)O)C2)c1C (centres unmarked) [Compound 20] | 71 µM and 131 µM |  | 71.2 ± 23 |  | 15 | 15 | 15 | 9 | no or modest anti-virulence activity without clear dose-response |
| Cc1c(Br)ccc(OCCCC(=O)NC(C(=O)O)c2ccccc2)c1C (centres unmarked) [Compound 21] | 67 µM and 88 µM |  | 66.5 ± 18.5 | 149.8 | 12 | 26 | 36 | 30 |  |
| COc1ccc(Br)cc1OCCCC(=O)O [Compound 6] | > 600 µM | impaired binding |  |  |  |  |  |  |  |
